Test: Observed incidence of treatment-emergent adverse events in clinical studies
Details: studies 202, 303, 304; 5 to 15 mg

Cc1ncc(OC[C@@]2(c3cccc(F)c3)C[C@H]2C(=O)Nc2ccc(F)cn2)c(C)n1 [Lemborexant]
Flu/influenza frequency, active treatment: 4.0%
